{"source": "patent US20230285374A1", "about": "“THERAPEUTIC METHODS USING VADADUSTAT” (Akebia Therapeutics, Inc., priority 2019, published 2023)", "key": {"[1]": {"tested_on": "anemic DD-CKD patients with incident dialysis and limited ESA exposure", "experiment": "Phase 3 Incident DD-CKD (Correction/Conversion) trial, vadadustat vs darbepoetin alfa", "format": "in vivo, human", "conditions": "for Ferritin, mean / Hepcidin, mean / TSAT, mean: Incident trial", "procedure": "(§1) Two randomized Phase 3, open-label, sponsor-blind, active-controlled non-inferiority (NI) trials were conducted in anemic DD-CKD patients with incident dialysis and limited ESA exposure (Correction/Conversion trial) and with prevalent dialysis and established ESA treatment (Conversion trial). The primary safety endpoint was prespecified as the time to first major adverse cardiovascular event (MACE) (all-cause mortality, non-fatal MI, or non-fatal stroke) pooled across the two trials. Primary and key secondary efficacy endpoints were mean change in Hb from baseline [BL] to wks 24-36 and to wks 40-52 between two treatment arms, respectively.\nPhase 3, randomized, open-label, active-controlled study of the efficacy and safety of vadadustat versus darbepoetin alfa for the maintenance treatment of anemia after the correction of hemoglobin (Hb) or conversion from current ESA therapy in subjects who have recently initiated dialysis treatment for DD-CKD. Following a Screening period of up to 8 weeks (56 days), subjects who met all inclusion and none of the exclusion criteria were randomized 1:1 to vadadustat or darbepoetin alfa.\nRandomization were stratified by: • Geographic region (United States [US] versus European Union [EU] versus Rest of World [ROW]). • New York Heart Association congestive heart failure (CHF) Class 0 (no CHF) or I versus II or III. • Study entry hemoglobin (Hb) level (<9.5 or ≥9.5 g/dL).\nFollowing randomization, there were 4 periods during the study: • Correction/Conversion Period (Weeks 0 to 23): initial period on study medication. • Maintenance Period (Weeks 24 to 52): period on study medication during which efficacy was assessed (primary evaluation period: Weeks 24 to 36; secondary evaluation period: Weeks 40 to 52). • Long-term Treatment Period (Weeks 53 to End of Treatment [EOT]): continued study medication to assess long-term safety. • Follow-up (EOT+4 weeks): post-treatment visit (either in person or via telephone) for safety.\nInclusion Criteria: Subjects met the following criteria: • ≥18 years of age. • Initiated chronic maintenance dialysis (either peritoneal or hemodialysis) for end-stage kidney disease within 16 weeks prior to Screening. • Mean screening hemoglobin (Hb) between 8.0 and 11.0 g/dL (inclusive), as determined by the average of 2 Hb values measured by the central laboratory during Screening. • Serum ferritin ≥100 ng/mL and transferrin saturation (TSAT) ≥20% at Screening. • Folate and vitamin B12 measurements lower limit of normal at Screening. • Understands the procedures and requirements of the study and provides written informed consent and authorization for protected health information disclosure.\n(§2) Exclusion Criteria: Subjects were excluded if they met any of the following criteria: • Anemia due to a cause other than CKD or subjects with active bleeding or recent blood loss. • Subjects with sickle cell disease, myelodysplastic syndromes, bone marrow fibrosis, hematologic malignancy, myeloma, hemolytic anemia, thalassemia, or pure red cell aplasia. • Red blood cell (RBC) transfusion within 8 weeks prior to randomization. • Anticipated to recover adequate kidney function to no longer require dialysis. • Aspartate aminotransferase (AST)/serum glutamic oxaloacetic transaminase (SGOT), alanine aminotransferase (ALT)/serum glutamic pyruvic transaminase (SGPT), or total bilirubin >2.0×upper limit of normal (ULN) at or during Screening. […]"}, "[2]": {"tested_on": "anemic DD-CKD patients with prevalent dialysis and established ESA treatment", "experiment": "Phase 3 Prevalent DD-CKD (Conversion) trial, vadadustat vs darbepoetin alfa", "format": "in vivo, human", "conditions": "for Ferritin, mean / Hepcidin, mean / TSAT, mean: Prevalent trial", "procedure": "as §1\nPhase 3, randomized, open-label, active-controlled study of vadadustat vs darbepoetin alfa for the maintenance treatment of anemia after conversion from ESA therapy.\nFollowing a Screening period of up to 8 weeks (56 days), subjects who met all inclusion and none of the exclusion criteria were randomized 1:1 to vadadustat or darbepoetin alfa.\nRandomization were stratified by: • Geographic region (United States [US] versus European Union [EU] versus Rest of World [ROW]) • New York Heart Association congestive heart failure (CHF) Class 0 (no CHF) or I versus II or III. • Study entry Hb (<10.0 versus ≥10.0 g/dL).\nFollowing randomization, there were 3 periods during the study: • Conversion and Maintenance Period (Weeks 0 to 52): conversion to study medication for maintaining Hb (Weeks 0-23), primary efficacy evaluation (Weeks 24-36), and secondary efficacy evaluation (Weeks 40-52). • Long-term Treatment Period (Weeks 53 to End of Treatment [EOT]): continued study medication to assess long-term safety. • Follow-up (EOT+4 weeks): post-treatment visit (either in person or via telephone) for safety.\nInclusion Criteria: • ≥18 years of age. • Receiving chronic maintenance dialysis (either peritoneal or hemodialysis) for end-stage kidney disease for at least 12 weeks prior to Screening. • Currently maintained on ESA therapy, with a dose received within 6 weeks prior to or during Screening. • Mean screening Hb between 8.0 and 11.0 g/dL (inclusive) in the US and between 9.0 and 12.0 g/dL (inclusive) outside of the US, as determined by the average of 2 Hb values measured by the central laboratory during Screening. • Serum ferritin ≥100 ng/mL and transferrin saturation (TSAT) 20% during Screening. • Folate and vitamin B12 measurements lower limit of normal during Screening. • Understands the procedures and requirements of the study and provides written informed consent and authorization for protected health information disclosure.\nas §2, with “Criteria:” for “Criteria: Subjects were excluded if they met any of the following criteria:”, “History of” for “Subjects with”, “(ULN)” for “(ULN) at or”"}}, "data": [{"smiles": "O=C(O)CNC(=O)c1ncc(-c2cccc(Cl)c2)cc1O", "note": "[Compound 1, Vadadustat]", "values": [{"measurement": "Ferritin, mean", "setting": "[1]; Baseline", "value": 469.72, "unit": "ng/mL"}, {"measurement": "Hepcidin, mean", "setting": "[1]; Baseline", "value": 122.43, "unit": "ng/mL"}, {"measurement": "TSAT, mean", "setting": "[1]; Baseline", "value": 31.32, "unit": "%"}, {"measurement": "Ferritin, mean", "setting": "[1]; Weeks 24-36", "value": 495.73, "unit": "ng/mL"}, {"measurement": "Hepcidin, mean", "setting": "[1]; Weeks 24-36", "value": 96.05, "unit": "ng/mL"}, {"measurement": "TSAT, mean", "setting": "[1]; Weeks 24-36", "value": 31.65, "unit": "%"}, {"measurement": "Ferritin, mean", "setting": "[1]; Weeks 40-52", "value": 555.47, "unit": "ng/mL"}, {"measurement": "Hepcidin, mean", "setting": "[1]; Weeks 40-52", "value": 95.73, "unit": "ng/mL"}, {"measurement": "TSAT, mean", "setting": "[1]; Weeks 40-52", "value": 33.11, "unit": "%"}, {"measurement": "proportion of patients requiring RBC transfusions", "setting": "[1]; weeks 24-36", "value": 1.3, "unit": "%"}, {"measurement": "proportion of patients with an average hemoglobin value within the geography-specific target range", "setting": "[1]; weeks 24-36", "value": 43.6, "unit": "%"}, {"measurement": "mean (SEM) change from baseline in hemoglobin", "setting": "[1]; weeks 24 to 36", "value": "1.26 (0.11) g/dL"}, {"measurement": "mean difference between groups (vadadustat vs darbepoetin alfa) in change from baseline in hemoglobin", "setting": "[1]; weeks 24 to 36", "value": "−0.31 (0.11) g/dL"}, {"measurement": "proportion of patients requiring RBC transfusions", "setting": "[1]; weeks 40-52", "value": 2.4, "unit": "%"}, {"measurement": "proportion of patients with an average hemoglobin value within the geography-specific target range", "setting": "[1]; weeks 40-52", "value": 39.8, "unit": "%"}, {"measurement": "mean (SEM) change from baseline in hemoglobin", "setting": "[1]; weeks 40 to 52", "value": "1.42 (0.132) g/dL"}, {"measurement": "mean difference between groups (vadadustat vs darbepoetin alfa) in change from baseline in hemoglobin", "setting": "[1]; weeks 40 to 52", "value": "−0.07 (0.13) g/dL"}, {"measurement": "Ferritin, mean", "setting": "[2]; Baseline", "value": 846.78, "unit": "ng/mL"}, {"measurement": "Hepcidin, mean", "setting": "[2]; Baseline", "value": 193.86, "unit": "ng/mL"}, {"measurement": "TSAT, mean", "setting": "[2]; Baseline", "value": 38.06, "unit": "%"}, {"measurement": "Ferritin, mean", "setting": "[2]; Weeks 24-36", "value": 801.93, "unit": "ng/mL"}, {"measurement": "Hepcidin, mean", "setting": "[2]; Weeks 24-36", "value": 146.95, "unit": "ng/mL"}, {"measurement": "TSAT, mean", "setting": "[2]; Weeks 24-36", "value": 34.77, "unit": "%"}, {"measurement": "Ferritin, mean", "setting": "[2]; Weeks 40-52", "value": 787.27, "unit": "ng/mL"}, {"measurement": "Hepcidin, mean", "setting": "[2]; Weeks 40-52", "value": 137.41, "unit": "ng/mL"}, {"measurement": "TSAT, mean", "setting": "[2]; Weeks 40-52", "value": 34.11, "unit": "%"}, {"measurement": "proportion of patients requiring RBC transfusions", "setting": "[2]; weeks 24-36", "value": 2.0, "unit": "%"}, {"measurement": "proportion of patients with an average hemoglobin value within the geography-specific target range", "setting": "[2]; weeks 24-36", "value": 49.2, "unit": "%"}, {"measurement": "mean (SEM) change from baseline in hemoglobin", "setting": "[2]; weeks 24 to 36", "value": "0.19 (0.032) g/dL"}, {"measurement": "mean difference between groups (vadadustat vs darbepoetin alfa) in change from baseline in hemoglobin", "setting": "[2]; weeks 24 to 36", "value": "−0.17 (0.033) g/dL"}, {"measurement": "proportion of patients requiring RBC transfusions", "setting": "[2]; weeks 40-52", "value": 3.7, "unit": "%"}, {"measurement": "proportion of patients with an average hemoglobin value within the geography-specific target range", "setting": "[2]; weeks 40-52", "value": 44.3, "unit": "%"}, {"measurement": "mean change from baseline in hemoglobin", "setting": "[2]; weeks 40 to 52", "value": "0.23 (0.035) g/dL"}, {"measurement": "mean difference between groups (vadadustat vs darbepoetin alfa) in change from baseline in hemoglobin", "setting": "[2]; weeks 40 to 52", "value": "−0.18 (0.035) g/dL"}]}]}
